Here are results for 2 molecules from patent US20160213041A1, “NUTRITIONAL COMPOSITION HAVING LIPOPHILIC COMPOUNDS WITH IMPROVED SOLUBILITY AND BIOAVAILABILITY” (ABBOTT LABORATORIES, priority 2013, published 2016).

The nature of series [1]: Distribution of lutein and MDG over cream, aqueous and pellet layers after 100,000×g (Example 58). In kind it is physicochemical. The settings on record: 100,000×g for 1 hour. The method, then:
A study was conducted to investigate the distribution of lutein and MDG within the nutritional compositions. Sample were prepared using homogenization at 150/20 bar, and then centrifuged at 100,000×g for 1 hour. The different layers (e.g., cream, aqueous, and pellet) were then analyzed for the presence of lutein and MDG.

Series [2] is described as follows: Centrifugation/ultrafiltration analysis of lutein and MDG in MDG batches (Example 60). In kind it is physicochemical. The settings on record: centrifugation at 1,000×g, samples with NFDM. How it is done: A study was conducted to further investigate the distribution of lutein and MDG within the nutritional composition. Samples included MDG/lutein/water; MDG/lutein/NFDM/water; MDG/lutein/WPC/water; and MDG/water.
The premixes were provided as follows: in samples that contained lutein, lutein was heated for 2 h at 50° C. with shaking. […] In samples that contained protein, non-fat dried milk was added to water (50-60° C.) with agitation and allowed to hydrate for approximately 10 min.
The samples were prepared as follows: for solution 1, water was heated to 50-60° C., an lutein in GMO-40 blend and turrax (30 sec 10000 rpm) was added; for solution 2, NFDM was placed in water solution heated to 50-60° C., and lutein was added in GMO-40 blend and turrax (30 sec 10000 rpm); for solution 3, water was heated to 50-60° C., and GMO-40 blend and turrax (30 sec 10000 rpm) was added. The solutions are listed in the table below as X.1, wherein 1 is the solution.
Samples were formulated as detailed above, and then characterized by ultrafiltration with various membranes, as well as ultracentrifuged at various times and speed (e.g., 100,000×g, 4,500×g, and 1,000×g). The details of the different centrifugation/filtration method are listed below. […]

The conditions of series [3]: 33° C.; cited from earlier work.

On to `CC1=C[C@H](O)CC(C)(C)[C@H]1/C=C/C(C)=C/C=C/C(C)=C/C=C/C=C(C)/C=C/C=C(C)/C=C/C1=C(C)C[C@@H](O)CC1(C)C` [lutein], for which the “lutein contained in the pellet” value in series [1] was “approximately 1%”. Further, the “present in the aqueous phase following centrifugation” value in series [1] (nutritional compositions comprising MDG, of the nutritional composition) is reported as “approximately 4 wt %”. The “lutein found in the aqueous phase” value in series [2] is on record as around 20%.
vitamin E: the “reported solubility limit in water” value in series [3] is reported as 20.9 mg/kg.
